Biological target: T1, ATM (Homo sapiens, UniProt Q13315)
T1 construct: detecting phosphorylation of Chk2 in a human non-small cell lung cancer cell line NCI-H460 (ATCC company); host or cells: NCI-H460 human non-small cell lung cancer cells
Assay: ATM inhibition test (phosphorylation of Chk2 generated by ionizing radiation, AlphaScreen SureFire)
Format: cell-based
Details: phosphorylated Chk2 in NCI-H460 cells, ionizing radiation 8Gy, 1 hour after test compound treatment; read-out: ATM inhibitory activity
Summary of the method: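 NCI-H460 cells treated with compound for 1 hour, then irradiated with 8Gy and incubated 1 hour at 37° C. Phospho-Chk2 measured by AlphaScreen SureFire. Inhibition ratio calculated relative to untreated irradiated and non-irradiated wells.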

T1 sequence (Q13315 whole entry): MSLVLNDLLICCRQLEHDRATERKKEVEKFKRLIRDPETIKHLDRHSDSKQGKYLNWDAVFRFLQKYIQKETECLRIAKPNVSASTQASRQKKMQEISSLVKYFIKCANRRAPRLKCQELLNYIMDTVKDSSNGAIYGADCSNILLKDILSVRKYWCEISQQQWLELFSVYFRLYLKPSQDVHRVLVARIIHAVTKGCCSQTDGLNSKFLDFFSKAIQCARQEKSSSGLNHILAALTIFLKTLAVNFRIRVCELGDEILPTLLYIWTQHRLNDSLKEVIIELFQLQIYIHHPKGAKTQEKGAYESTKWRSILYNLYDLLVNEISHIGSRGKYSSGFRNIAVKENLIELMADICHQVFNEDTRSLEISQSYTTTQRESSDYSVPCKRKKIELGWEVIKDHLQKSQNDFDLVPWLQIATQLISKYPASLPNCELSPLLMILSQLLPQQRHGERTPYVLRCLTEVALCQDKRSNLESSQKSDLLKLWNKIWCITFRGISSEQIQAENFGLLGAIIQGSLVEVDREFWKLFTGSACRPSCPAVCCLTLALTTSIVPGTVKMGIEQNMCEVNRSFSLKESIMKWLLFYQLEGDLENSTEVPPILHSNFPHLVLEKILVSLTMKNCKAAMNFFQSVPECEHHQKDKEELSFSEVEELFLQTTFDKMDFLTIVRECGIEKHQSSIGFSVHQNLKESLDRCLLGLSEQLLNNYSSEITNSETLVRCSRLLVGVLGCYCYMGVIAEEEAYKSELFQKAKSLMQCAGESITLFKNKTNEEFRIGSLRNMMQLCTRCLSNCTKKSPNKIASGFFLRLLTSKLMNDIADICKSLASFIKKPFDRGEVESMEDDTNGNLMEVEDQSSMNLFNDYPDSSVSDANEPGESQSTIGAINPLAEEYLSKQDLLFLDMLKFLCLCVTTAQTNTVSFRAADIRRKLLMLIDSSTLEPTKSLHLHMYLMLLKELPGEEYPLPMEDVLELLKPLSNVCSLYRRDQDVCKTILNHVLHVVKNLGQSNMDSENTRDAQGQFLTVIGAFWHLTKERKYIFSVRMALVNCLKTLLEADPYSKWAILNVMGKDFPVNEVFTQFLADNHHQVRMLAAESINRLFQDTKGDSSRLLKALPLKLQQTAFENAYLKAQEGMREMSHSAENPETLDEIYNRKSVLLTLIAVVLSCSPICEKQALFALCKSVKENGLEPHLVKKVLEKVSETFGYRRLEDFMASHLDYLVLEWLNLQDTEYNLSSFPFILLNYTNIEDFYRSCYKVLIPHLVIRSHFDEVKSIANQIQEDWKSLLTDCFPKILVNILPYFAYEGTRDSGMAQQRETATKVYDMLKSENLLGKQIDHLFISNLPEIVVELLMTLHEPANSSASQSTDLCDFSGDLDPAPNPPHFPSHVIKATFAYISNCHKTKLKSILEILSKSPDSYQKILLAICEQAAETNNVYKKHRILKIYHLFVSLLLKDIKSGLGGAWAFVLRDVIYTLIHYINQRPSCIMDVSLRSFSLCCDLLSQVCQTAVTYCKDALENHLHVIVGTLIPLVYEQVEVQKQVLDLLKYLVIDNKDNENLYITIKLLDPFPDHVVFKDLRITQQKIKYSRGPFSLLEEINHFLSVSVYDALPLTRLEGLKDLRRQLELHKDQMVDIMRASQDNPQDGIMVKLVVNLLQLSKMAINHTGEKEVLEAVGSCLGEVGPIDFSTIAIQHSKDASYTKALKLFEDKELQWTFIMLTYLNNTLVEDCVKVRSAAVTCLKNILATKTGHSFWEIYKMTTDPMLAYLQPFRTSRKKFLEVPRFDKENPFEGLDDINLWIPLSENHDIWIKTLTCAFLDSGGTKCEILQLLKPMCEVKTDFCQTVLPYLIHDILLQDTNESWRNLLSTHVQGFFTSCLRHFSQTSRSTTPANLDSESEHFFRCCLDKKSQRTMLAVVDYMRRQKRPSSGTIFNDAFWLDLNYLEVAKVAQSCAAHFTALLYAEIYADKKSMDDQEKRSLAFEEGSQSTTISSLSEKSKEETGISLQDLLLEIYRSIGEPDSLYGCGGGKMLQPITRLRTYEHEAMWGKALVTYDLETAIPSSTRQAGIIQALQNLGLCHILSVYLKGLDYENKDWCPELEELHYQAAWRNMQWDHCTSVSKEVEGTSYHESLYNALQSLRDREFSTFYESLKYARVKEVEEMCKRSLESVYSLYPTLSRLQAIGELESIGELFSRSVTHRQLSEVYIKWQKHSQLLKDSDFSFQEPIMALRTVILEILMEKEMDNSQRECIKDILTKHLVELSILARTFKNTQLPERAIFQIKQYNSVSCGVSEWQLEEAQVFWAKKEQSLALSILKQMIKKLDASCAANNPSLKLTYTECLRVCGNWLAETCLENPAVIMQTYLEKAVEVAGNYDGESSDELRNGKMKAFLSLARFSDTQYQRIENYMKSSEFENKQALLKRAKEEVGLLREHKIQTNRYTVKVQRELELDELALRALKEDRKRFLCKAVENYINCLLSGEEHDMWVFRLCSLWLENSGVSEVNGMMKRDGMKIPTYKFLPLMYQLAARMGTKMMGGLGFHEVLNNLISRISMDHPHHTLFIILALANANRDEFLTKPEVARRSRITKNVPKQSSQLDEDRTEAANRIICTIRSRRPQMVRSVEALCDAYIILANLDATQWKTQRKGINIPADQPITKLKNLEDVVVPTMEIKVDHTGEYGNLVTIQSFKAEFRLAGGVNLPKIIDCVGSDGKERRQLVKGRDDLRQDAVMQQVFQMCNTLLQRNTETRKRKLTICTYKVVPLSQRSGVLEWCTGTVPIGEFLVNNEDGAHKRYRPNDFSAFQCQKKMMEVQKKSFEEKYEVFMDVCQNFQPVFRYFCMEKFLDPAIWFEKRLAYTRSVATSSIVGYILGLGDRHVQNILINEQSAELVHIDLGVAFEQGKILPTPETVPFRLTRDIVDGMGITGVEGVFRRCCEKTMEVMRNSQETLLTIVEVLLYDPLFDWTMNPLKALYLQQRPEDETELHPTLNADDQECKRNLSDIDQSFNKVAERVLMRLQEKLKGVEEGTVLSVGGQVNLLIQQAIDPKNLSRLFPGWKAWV

Row | Compound | IC50 [µM]
1 | O=c1cc(N2CCOCC2)cc(-c2cccc3c2Oc2ccc(NC4CCN(Cc5cc(C6CC6)ccn5)CC4)cc2C3)[nH]1 [Example 2-28-30, 6-(7-((1-((4-Cyclopropylpyridin-2-yl)methyl)piperidin-4-yl)amino)-9H-xanthen-4-yl)-4-morpholino pyridin-2(1H)-one] | 0.1 to 0.5
2 | CCCCN1CCC(Nc2ccc3c(c2)Cc2cccc(-c4cc(N5CCOCC5)cc(=O)[nH]4)c2O3)CC1 [Example 2-28-33, 6-(7-((1-Butylpiperidin-4-yl)amino)-9H-xanthen-4-yl)-4-morpholino pyridin-2 (1H)-one] | 0.1 to 0.5
3 | CC(Nc1ccc2c(c1)Cc1cccc(-c3cc(N4CCOCC4)cc(=O)[nH]3)c1O2)c1nccs1 (stereo not shown) [Example 2-14-43, 4-Morpholino-6-(7-((1-(thiazol-2-yl)ethyl)amino)-9H-xanthen-4-yl)pyridin-2 (1H)-one] | 0.1 to 0.5
4 | COc1cncc(CNc2ccc3c(c2)Cc2cccc(-c4nc(N5CCOCC5)cc(=O)[nH]4)c2O3)c1 [Example 2-52-2, 2-(7-(((5-Methoxypyridin-3-yl)methyl)amino)-9H-xanthen-4-yl)-6-morpholino pyrimidine-4(3H)-one] | 0.1 to 0.5
5 | Cc1ccc(CNc2ccc3c(c2)Cc2ccnc(-c4cc(N5CCOCC5)cc(=O)[nH]4)c2O3)nc1 [Example 2-42-2, 6-(7-(((5-Methylpyridin-2-yl)methyl)amino)-5H-chromeno[2,3-c]pyridin-1-yl)-4-morpholinopyridin-2(1H)-one] | 0.1 to 0.5
6 | Nc1ccc2c(c1)Cc1cccc(-c3cc(N4CCOCC4)cc(=O)[nH]3)c1O2 [Example 2-1-1, 5-6-(7-amino-9H-xanthen-4-yl)-4-morpholinopyridin-2(1H)-one] | 0.5 to 2

Now from value to molecule:

Row | IC50 [µM] | Compound
7 | 0.1 to 0.5 | CC(Nc1ccc2c(c1)Sc1cccc(-c3cc(N4CCOCC4)cc(=O)[nH]3)c1S2)c1ncc(CO)cn1 (stereo not shown) [Example 1-12-92, 6-(7-((1-(5-(Hydroxymethyl)pyrimidin-2-yl)ethyl)amino)thianthren-1-yl)-4-morpholino pyridin-2(1H)-one]
8 | 0.1 to 0.5 | Cc1ccncc1CNc1ccc2c(c1)Cc1cccc(-c3cc(N4CCOCC4)cc(=O)[nH]3)c1O2 [Example 2-14-5, 6-(7-(((4-Methylpyridin-3-yl)methyl)amino)-9H-xanthen-4-yl)-4-morpholino pyridin-2(1H)-one]
9 | 0.1 to 0.5 | O=c1cc(N2CCOCC2)cc(-c2cccc3c2Sc2ccc(NC(CN4CCCCC4)CN4CCOCC4)cc2S3)[nH]1 (stereo not shown) [Example 1-39, 4-morpholino-6-(7-((1-morpholino-3-(piperidin-1-yl)propan-2-yl)amino)thianthren-1-yl)pyridin-2(1H)-one]
10 | 0.1 to 0.5 | CN[C@@H](Cc1ccccc1)C(=O)Nc1ccc2c(c1)Sc1cccc(-c3cc(N4CCOCC4)cc(=O)[nH]3)c1S2 [Example 1-4, (S)-2-(methylamino)-N-(6-(4-morpholino-6-oxo-1,6-dihydropyridin-2-yl)thianthren-2-yl)-3-phenyl propanamide]
11 | 0.5 to 2 | CNCC(Nc1ccc2c(c1)Sc1cccc(-c3cc(N4CCOCC4)cc(=O)[nH]3)c1S2)c1cccc(C)n1 (single isomer, unassigned) [Example 1-19-4-2, 6-(7-((2-(Methylamino)-1-(6-methylpyridin-2-yl)ethyl)amino)thianthren-1-yl)-4-morpholinopyridin-2(1H)-one]
12 | 0.1 to 0.5 | O=c1cc(N2CCOCC2)cc(-c2cccc3c2Sc2ccc(NC4CCN(C5CCCCC5)C4)cc2S3)[nH]1 (stereo not shown) [Example 1-24-9, 6-(7-((1-Cyclohexylpyrrolidin-3-yl)amino)thianthren-1-yl)-4-morpholinopyridin-2(1H)-one]
13 | 0.1 to 0.5 | CC1CCCCN1CC(CO)Nc1ccc2c(c1)Sc1cccc(-c3cc(N4CCOCC4)cc(=O)[nH]3)c1S2 (single isomer, unassigned) [Example 1-37-6, 6-(7-((1-Hydroxy-3-(2-methylpiperidin-1-yl)propan-2-yl)amino)thianthren-1-yl)-4-morpholino pyridin-2(1H)-one]

Source: patent US9586951B2 (FUJIFILM Corporation, priority 2013, dated 2017)
